The source of these data is paper PMC4114533, “Synthesis, Anti-tubulin and Antiproliferative SAR of Steroidomimetic Dihydroisoquinolinones” (Chemmedchem, 2014).

Like-named read-outs stand apart in the source and are kept apart here.

The target of series [1] is T1, Bovine brain tubulin (Bos taurus, UniProt P81947+Q6B856).
T1 construct: Bovine brain tubulin, prepared as described previously,[16] was used in studies presented here; from tissue; host or cells: bovine brain
The arrangement: method as in PMID 20225862. To be noted: data taken from the literature ref 3; cited from earlier work.

Series [2] relates to Bovine brain tubulin. The arrangement: method as in PMID 20225862. The note with it: data taken from the literature ref 3; read-out: TP IC50 (tubulin polymerisation); cited from earlier work.
The subject of series [3] is DU-145 human prostate cancer cells. Description: Antiproliferative assay (WST-1, 96 h), DU-145. To be noted: for GI50: Homo sapiens, DU-145 cells, 96 h, WST-1, mean of three determinations. The class given is cell-based. Here is the method:
(§1) Cell lines: DU-145 (brain metastasis carcinoma of the prostate) and MDA MB-231 (metastatic pleural effusion of breast adenocarcinoma) established human cell lines were obtained from ATCC Global Bioresource Center. Cells were maintained in a 5 % CO2 humidified atmosphere at 37 °C in RPMI-1640 medium, supplemented with 10 % fetal bovine serum, penicillin, (100 U mL^−1), and streptomycin (0.1 mg mL^−1). The effect of drugs on tubule formation was assessed using an angiogenesis kit (TCS-Cellworks).
(§2) Antiproliferative assays: DU-145 and MDA MB-231 cells were seeded into 96-well microtitre plates (5000 cells per well) and treated with compound (10^−9–10^−4 M) or with vehicle control. At 96 h post-treatment, live cell counts were determined by WST-1 cell proliferation assay (Roche, Penzberg, Germany), as per the manufacturer’s instructions. Viability results were expressed as a percentage of mean control values resulting in the calculation of the 50 % growth inhibition (GI50). All experiments were performed in triplicate.
On the technique in general: Tetrazolium dyes change colour on reduction, which living cells bring about.

Series [4] has as its system MDA MB-231 human breast cancer cells. Description: Antiproliferative assay (WST-1, 96 h), MDA MB-231. Type of series: cell-based. The note with it: MDA MB-231 cells, WST-1, mean of three determinations. Here is the method:
as §1, §2

The target of series [5] is T1, Bovine brain tubulin. Description: Inhibition of [3H]colchicine binding to tubulin. To be noted: mean ±SD. Here is the method: (§3) Tubulin assays: Bovine brain tubulin, prepared as described previously,[16] was used in studies presented here. Assembly IC50 values were determined as described in detail elsewhere.[17] Briefly, 1.0 mg mL^−1 (10 μM) tubulin was pre-incubated without GTP with varying compound concentrations for 15 min at 30 °C. Reaction mixtures were placed on ice, and GTP (final concentration, 0.4 mM) was added. The reaction mixtures were transferred to cuvettes, held at 0 °C in a recording spectrophotometer. Baselines were established at 0 °C, and increase in turbidity was followed for 20 min following a rapid (<30 s) jump to 30 °C. Compound concentrations required to decrease the turbidity increase by 50 % were determined. The method for measuring inhibition of the binding of [^3H]colchicine to tubulin was described in detail previously.[18] Reaction mixtures contained 0.1 mg mL^−1 (1.0 μM) tubulin, 5.0 μM [^3H]colchicine, and potential inhibitor at 5.0 μM. […] A minimum of two experiments were performed with each compound.

In series [6] the test system is Bovine brain tubulin. Description: Tubulin polymerisation (assembly) assay. The class given is biochemical. To be noted: 10 μM tubulin, mean ±SD of at least two determinations; read-out: TP IC50 (tubulin polymerisation). Here is the method:
as §3

T1 sequence (Q6B856 whole entry): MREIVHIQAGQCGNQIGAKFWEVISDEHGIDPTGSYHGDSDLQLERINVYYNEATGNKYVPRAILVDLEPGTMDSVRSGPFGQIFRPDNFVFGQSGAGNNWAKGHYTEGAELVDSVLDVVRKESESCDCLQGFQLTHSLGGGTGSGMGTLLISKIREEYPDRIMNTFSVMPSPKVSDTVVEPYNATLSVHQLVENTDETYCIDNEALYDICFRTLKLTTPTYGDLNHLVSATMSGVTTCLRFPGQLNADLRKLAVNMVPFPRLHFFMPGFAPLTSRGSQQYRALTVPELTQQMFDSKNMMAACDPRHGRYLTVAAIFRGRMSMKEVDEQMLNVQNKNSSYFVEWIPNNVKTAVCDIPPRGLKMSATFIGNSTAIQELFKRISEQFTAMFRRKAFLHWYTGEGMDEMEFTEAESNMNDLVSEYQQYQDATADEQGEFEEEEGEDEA
T1 sequence (P81947 whole entry): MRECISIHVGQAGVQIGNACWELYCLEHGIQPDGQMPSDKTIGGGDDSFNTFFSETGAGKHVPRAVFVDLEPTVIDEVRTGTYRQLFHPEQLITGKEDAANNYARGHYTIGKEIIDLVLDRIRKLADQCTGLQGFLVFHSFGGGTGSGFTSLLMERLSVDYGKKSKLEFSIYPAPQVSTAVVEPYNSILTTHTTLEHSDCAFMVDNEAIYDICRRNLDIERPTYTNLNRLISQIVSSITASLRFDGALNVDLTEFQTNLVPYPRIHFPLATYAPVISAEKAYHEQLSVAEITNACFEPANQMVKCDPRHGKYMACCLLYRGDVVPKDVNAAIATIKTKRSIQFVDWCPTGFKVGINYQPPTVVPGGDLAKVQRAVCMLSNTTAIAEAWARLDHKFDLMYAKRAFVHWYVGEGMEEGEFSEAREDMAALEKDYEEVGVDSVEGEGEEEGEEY

As to `COc1cc2c(cc1OS(N)(=O)=O)CC[C@@H]1[C@@H]2CC[C@]2(C)[C@@H](OS(N)(=O)=O)CC[C@@H]12` [1 a], the “CB [% inhib.] 5 μM inhibitor” value at Bovine brain tubulin [1] was 28±3%. Moreover, the IC50 in the series on Bovine brain tubulin [2] was 2.2 ± 0.3 µM.

Take `COc1cc2c(cc1OS(N)(=O)=O)CC[C@@H]1[C@@H]2CC[C@]2(C)[C@@H](CC#N)CC[C@@H]12` [1 b]: the “CB [% inhib.] 5 μM inhibitor” value on Bovine brain tubulin [1] was 78±0.9%. Besides, in the series on Bovine brain tubulin [2], the IC50 is 1.3 ± 0.08 µM.

For the compound `CCc1cc2c(cc1OS(N)(=O)=O)CC[C@@H]1[C@@H]2CC[C@]2(C)[C@@H](OS(N)(=O)=O)CC[C@@H]12` [1 c], on Bovine brain tubulin [1], the “CB [% inhib.] 5 μM inhibitor” value is on record as 45±4%. For the same compound, the IC50 in the series on Bovine brain tubulin [2] is 1.3 ± 0.01 µM.

The compound `COc1cccc(CN2CCc3cc(O)c(OC)cc3C2=O)c1` [8 b, 6-Hydroxy-7-methoxy-2-(3-methoxybenzyl)-3,4-dihydroisoquinolin-1(2H)-one] came in with a melting point of 181 to 182 °C. The compound also gave a GI50 in series [3] of over 100 µM.

`COc1ccc(CN2CCc3cc(O)c(OC)cc3C2=O)cc1` [8 c, 6-Hydroxy-7-methoxy-2-(4-methoxybenzyl)-3,4-dihydroisoquinolin-1(2H)-one] gave a melting point of 171 to 172 °C. The GI50 in series [3] is over 100 µM.

`COc1cccc(CN2CCc3cc(OS(N)(=O)=O)c(OC)cc3C2=O)c1` [9 b, 7-Methoxy-2-(3-methoxybenzyl)-6-sulfamoyloxy-3,4-dihydroisoquinolin-1(2H)-one] showed a melting point of 139 to 140 °C. The compound further yielded a GI50 in series [3] of over 100 µM.

In turn, `COc1ccc(S(=O)(=O)N2CCc3cc(O)c(OC)cc3C2=O)cc1` [11 c, 6-Hydroxy-7-methoxy-2-((4-methoxyphenyl)sulfonyl)-3,4-dihydroisoquinolin-1(2H)-one] registered a melting point of 202 to 204 °C. Moreover, the concentration for 50% growth inhibition (GI50) in series [4] is over 100 µM. In series [3], this compound showed a GI50 of over 100 µM.

Regarding `COc1cc2c(cc1O)CCN(S(=O)(=O)c1cccc(Cl)c1)C2=O` [11 d, 6-Hydroxy-7-methoxy-2-((3-chlorophenyl)sulfonyl)-3,4-dihydroisoquinolin-1(2H)-one], the melting point fell in the range of 178 to 181 °C. The compound further yielded a GI50 in series [4] of over 100 µM. The compound further registered a GI50 in series [3] of over 100 µM.

The compound `COC(=O)c1ccccc1S(=O)(=O)N1CCc2cc(O)c(OC)cc2C1=O` [11 e, Methyl 2-((6-hydroxy-7-methoxy-1-oxo-3,4-dihydroisoquinolin-2(1H)-yl)sulfonyl)benzoate] gave a melting point of 236 to 239 °C. The GI50 in series [4] was over 100 µM. For the same compound, the GI50 in series [3] is over 100 µM.

`COc1cc2c(cc1OS(N)(=O)=O)CCN(S(=O)(=O)c1ccccc1OC)C2=O` [12 a, 7-Methoxy-2-((2-methoxyphenyl)sulfonyl)-6-(sulfamoyloxy)-3,4-dihydroisoquinolin-1(2H)-one] gave a melting point of 195 to 197 °C. The GI50 in series [4] is over 100 µM. The GI50 in series [3] was over 100 µM.

In turn, `COc1cccc(S(=O)(=O)N2CCc3cc(OS(N)(=O)=O)c(OC)cc3C2=O)c1` [12 b, 7-Methoxy-2-((3-methoxyphenyl)sulfonyl)-6-(sulfamoyloxy)-3,4-dihydroisoquinolin-1(2H)-one] yielded a melting point of 164 to 166 °C. In series [4], this compound yielded a GI50 of over 100 µM. The compound also yielded a GI50 in series [3] of over 100 µM.

`COc1cc2c(cc1OS(N)(=O)=O)CCN(S(=O)(=O)c1cccc(Cl)c1)C2=O` [12 d, 2-((3-Chlorophenyl)sulfonyl)-7-methoxy-6-(sulfamoyloxy)-3,4-dihydroisoquinolin-1(2H)-one] had a melting point of 170 to 173 °C. Moreover, the GI50 in series [4] was over 100 µM. In series [3], this compound had a GI50 of over 100 µM.

On to `COC(=O)c1ccccc1S(=O)(=O)N1CCc2cc(OS(N)(=O)=O)c(OC)cc2C1=O` [12 e, Methyl 2-((7-methoxy-1-oxo-6-(sulfamoyloxy)-3,4-dihydroisoquinolin-2(1H)-yl)sulfonyl)benzoate], for which the melting point lay within 181 to 186 °C. In series [4], this compound returned a GI50 of 13 µM. Besides, the GI50 in series [3] is over 100 µM.

Consider `COc1cc2c(cc1OCc1ccccc1)CCN(C(=O)c1cc(OC)c(OC)c(OC)c1)C2=O` [15 g, 6-Benzyloxy-7-methoxy-2-(3,4,5-trimethoxybenzoyl)-3,4-dihydroisoquinolin-1(2H)-one], for which the GI50 in series [4] is 77.5 µM; in series [3] it was over 100 µM.

Take `COc1cc2c(cc1O)CCN(C(=O)c1ccccc1OC)C2=O` [16 a, 6-Hydroxy-2-(2-methoxybenzoyl)-7-methoxy-3,4-dihydroisoquinolin-1(2H)-one]: the GI50 in series [4] was determined as 5.6 µM; in series [3], 6.42 µM.

Regarding `COc1cccc(C(=O)N2CCc3cc(O)c(OC)cc3C2=O)c1` [16 b, 6-Hydroxy-2-(3-methoxybenzoyl)-7-methoxy-3,4-dihydroisoquinolin-1(2H)-one], the GI50 in series [4] is 1.89 µM; in series [3] it was 3.63 µM.

Consider `COc1cc2c(cc1O)CCN(C(=O)c1cccc(C#N)c1)C2=O` [16 c, 2-(3-Cyanobenzoyl)-6-hydroxy-7-methoxy-3,4-dihydroisoquinolin-1(2H)-one], for which the GI50 worked out at 37.4 µM in series [4] and 70 µM in series [3].

On to `COc1cc2c(cc1O)CCN(C(=O)c1ccc(OC)c(OC)c1)C2=O` [16 e, 6-Hydroxy-2-(3,4-dimethoxybenzoyl)-7-methoxy-3,4-dihydroisoquinolin-1(2H)-one], for which the melting point was in the range of 199 to 200 °C. This compound also had a GI50 in series [4] of 1.6 µM. Further, it took 2.39 µM to inhibit growth in series [3] by half (GI50).

With `COc1cc2c(cc1OS(N)(=O)=O)CCN(C(=O)c1ccccc1OC)C2=O` [17 a, 2-(2-Methoxybenzoyl)-7-methoxy-6-sulfamoyloxy-3,4-dihydroisoquinolin-1(2H)-one], the results for the GI50 in series [4] and in series [3] were 7.1 µM and 9.1 µM, respectively.

For `COc1cccc(C(=O)N2CCc3cc(OS(N)(=O)=O)c(OC)cc3C2=O)c1` [17 b, 2-(3-Methoxybenzoyl)-7-methoxy-6-sulfamoyloxy-3,4-dihydroisoquinolin-1(2H)-one], the results for the GI50 in series [4] and in series [3] were 3.5 µM and 5.3 µM, respectively.

As for `COc1cc2c(cc1OS(N)(=O)=O)CCN(C(=O)c1cccc(C#N)c1)C2=O` [17 c, 2-(3-Cyanobenzoyl)-7-methoxy-6-sulfamoyloxy-3,4-dihydroisoquinolin-1(2H)-one], the melting point fell in the range of 171 to 172 °C. In series [4], this compound showed a GI50 of over 100 µM. In series [3], this compound displayed a GI50 of 25 µM.

Compound `COc1ccc(C(=O)N2CCc3cc(OS(N)(=O)=O)c(OC)cc3C2=O)cc1` [17 d, 2-(4-Methoxybenzoyl)-7-methoxy-6-sulfamoyloxy-3,4-dihydroisoquinolin-1(2H)-one] registered a melting point of 171 to 172 °C. The compound also yielded a GI50 in series [3] of over 100 µM. Besides, in series [3] (in vitro antiproliferative activity, result in words), the “antiproliferative activity (in words)” value was “inactive”.

On to `COc1ccc(C(=O)N2CCc3cc(OS(N)(=O)=O)c(OC)cc3C2=O)cc1OC` [17 e, 2-(3,4-Dimethoxybenzoyl)-7-methoxy-6-sulfamoyloxy-3,4-dihydroisoquinolin-1(2H)-one], for which the values for the GI50 in series [4] and in series [3] were 2.08 µM and 3.4 µM, respectively.

Turning to `COc1cc2c(cc1OS(N)(=O)=O)CCN(C(=O)c1cc(OC)c(OC)c(OC)c1)C2=O` [17 g, 7-Methoxy-2-(3,4,5-trimethoxybenzoyl)-6-sulfamoyloxy-3,4-dihydroisoquinolin-1(2H)-one], the GI50 came to 0.275 µM in series [4] and 0.166 µM in series [3]. In addition, on Bovine brain tubulin [5] (5 μM inhibitor, 1.0 μM tubulin, 5.0 μM [3H]colchicine, read-out: CB [% inhib.] 5 μM inhibitor), the inhibition at 5 µM was 85 ± 2%. Besides, the IC50 with Bovine brain tubulin [6] was determined as 1.2 ± 0.03 µM.

With `COc1ccc(/C=C\c2cc(OC)c(OC)c(OC)c2)cc1O` [CA-4, combretastatin A-4, reference compound], the inhibition at 1 µM on Bovine brain tubulin [5] (1 μM inhibitor, read-out: CB [% inhib.] 1 μM inhibitor) was 90 ± 0.2%.

As usually defined, the IC50 is the concentration at which inhibition is half-maximal. As usually defined, the melting point is the temperature, or range, at which the solid turns liquid. What is called GI50 is the concentration that inhibits growth by half.
